# Measurements taken from patent US10934297B2, “5-heteroaryl substituted indazole-3-carboxamides and preparation and use thereof” (Samumed, LLC, priority 2018, dated 2021).
# Legend:
# IL-6 = IL-6 inhibition in LPS-stimulated human peripheral blood mononuclear cells (HTRF); format: cell-based; settings: Homo sapiens, PBMC; for EC50: huPBMCs, LPS 50 ng/mL, 22 hours, IL-6 HTRF; for inhibition at 10 µM: read-out: percent inhibition at 10 μM
# Procedure, shortened: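 HTRF 665/620 nm ratio, read after 3 h antibody incubation at room temperature, quantified IL-6 released by fresh human PBMCs (1×10e6 cells/mL, 1% FBS-RPMI). The cells got compound, then 50 ng/mL LPS at 2 h, followed by a further 22 h at 37° C. EC50 came from DMSO-normalized readings run in duplicate.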
# DYRK1A kinase = DYRK1A kinase (Homo sapiens (Human), UniProt Q13627); test: DYRK1A kinase assay (Ser/Thr 18 peptide Z-lyte FRET); format: biochemical; settings: read-out: EC50 (method: IC50)
# Procedure, shortened: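 Kinase reactions with compound ran 1 h at room temperature in duplicate, and development reagent was then added for another hour.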
# [1] = tested on: SW480 colon carcinoma cells; test: Cell viability assay (CellTiter-Glo) in SW480 colon carcinoma cells; format: cell-based, human; settings: Homo sapiens, 96 h, four days
# Procedure, shortened: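 Viability was taken from CellTiter-Glo ATP luminescence, read about 12 min after reagent addition, relative to DMSO controls. The cells were Sp5-Luc reporter SW480 colon carcinoma cells, 2,000/well in 1% FBS DMEM, exposed to compound for four days at 37 °C.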
# [2] = tested on: primary human fibroblasts derived from IPF patients (LL29 cells); test: Inhibition of the fibrotic process: αSMA staining in TGF-β1 treated LL29 fibroblasts; format: cell-based; settings: Homo sapiens, Fibroblast; for EC50: 96 h, LL29 cells, TGF-β1 20 ng/mL, 4 days, % αSMA positive cells
# Procedure, shortened: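 LL29 fibroblasts from IPF patients, in F12 medium with 1% FBS, treated with TGF-β1 plus compound; TGF-β1 with DMSO as positive control, DMSO alone as negative control. After 4 days' incubation, SYTOX green nucleic acid stain added at 1 μM final, 30 min at room temperature.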
# [3] = tested on: primary human mesenchymal stem cells (hMSCs); test: Tenocyte differentiation assay (SCXA-positive cells) in hMSCs; format: cell-based; settings: for EC50: Homo sapiens, Mesenchymal stem cells, 96 h, hMSCs, 4 days, SCXA positive cells; for percent in parentheses under EC50 >100: given for EC50 >100 μM, meaning not defined in this example
# Excerpt: Representative compounds were screened using primary human mesenchymal stem cells (hMSCs) to determine their ability to induce tenocyte differentiation (process by which tendon is developed).
# Primary human mesenchymal stem cells (hMSCs) were purchased from Lonza (Walkersville, Md.) and expanded in Mesenchymal Stem Cell Growth Media (Lonza). Cells between passage 3 and 6 were used for the experiments.
# Cells were fixed using 4% formaldehyde (Electron Microscopy Sciences), and stained with anti-Sclerasis (anti-SCXA) antibodies (Abgent, San Diego, Calif.) [Webb S., et.al., Retinoic acid receptor signaling preserves tendon stem cell characteristics and prevents spontaneous differentiation in vitro, Stem Cell Research & Therapy 2016, 7:45] overnight at 4° C. […] Number of cells positive for SCXA in each well was quantified using the CellInsight CX5. Data was normalized to the average of 12 DMSO treated wells on the same plate using Dotmatics Studies module. The normalized averages (fold change over DMSO) of 3 replicate wells for each compound concentration were calculated. Due to solubility limitations of some of the compounds, values for higher doses were manually corrected and curve fitting and EC50 determinations were performed using Dotmatics Studies.
# [4] = tested on: Wnt activity (Sp5-Luc reporter in SW480 cells); test: Screening assay for Wnt activity: Sp5-Luc reporter gene assay in SW480 colon carcinoma cells; format: cell-based, human; settings: Homo sapiens, 36 to 48 hours
# Procedure, shortened: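 EC50 values come from a variable-slope four-parameter fit of luminescence normalized to DMSO-only wells. The read-out follows 36–48 h incubation at 37 °C, 5% CO2, in DMEM containing 1% fetal bovine serum. Cells are hygromycin-selected SW480 stably expressing firefly luciferase under a Wnt-responsive Sp5 promoter (eight TCF/LEF sites).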
# GSK3β kinase = GSK3β kinase (Homo sapiens (Human), UniProt P49841); test: GSK3β kinase assay (Ser/Thr 09 peptide Z-lyte FRET); format: biochemical; settings: read-out: EC50 (method: IC50)
# Procedure, shortened: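 Non-radioactive Z-lyte FRET read-out, kinase activity expressed as coumarin/fluorescein emission ratio. Compounds incubated with the reaction mixture one hour at room temperature in duplicate, then development buffer added for another hour. IC50 from non-linear regression of dose-response curves.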
# Sequence of GSK3β kinase (P49841 whole entry): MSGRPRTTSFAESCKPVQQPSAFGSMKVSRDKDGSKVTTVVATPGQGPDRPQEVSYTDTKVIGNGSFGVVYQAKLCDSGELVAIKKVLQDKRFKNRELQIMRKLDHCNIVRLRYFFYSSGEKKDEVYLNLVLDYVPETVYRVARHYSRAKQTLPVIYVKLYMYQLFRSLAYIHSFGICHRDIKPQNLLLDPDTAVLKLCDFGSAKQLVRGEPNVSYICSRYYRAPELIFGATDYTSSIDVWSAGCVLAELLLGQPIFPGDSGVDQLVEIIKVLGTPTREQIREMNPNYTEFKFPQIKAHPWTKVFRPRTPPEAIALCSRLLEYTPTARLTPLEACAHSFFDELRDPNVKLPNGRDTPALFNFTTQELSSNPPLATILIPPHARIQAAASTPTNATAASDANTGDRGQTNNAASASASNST
EC50 (IL-6) [µM],IC50 (DYRK1A kinase) [µM],EC50 [1] [µM],EC50 [3] [µM],EC50 [4] [µM],IC50 (GSK3β kinase) [µM],percent in parentheses under EC50 >100 [3],SMILES,inhibition at 10 µM (IL-6) [%],EC50 [2] [µM],inhibition at 10 µM ([2]; read-out: percent inhibition at 10 μM) [%]
> 10,0.22,3.04,2.77,> 10,0.027,–,"Cc1ncc(-c2ccc3[nH]nc(C(=O)N[C@@H](C)C(F)(F)F)c3c2)n1C [Compound 131, (S)-5-(1,2-Dimethyl-1H-imidazol-5-yl)-N-(1,1,1-trifluoropropan-2-yl)-1H-indazole-3-carboxamide]",15.1,4.49,–
1.86,0.005,0.414,> 100,0.306,0.02,(21.0%),"Cn1cc(-c2cc3c(C(=O)Nc4cccc(OCCN5CCCC5)c4)n[nH]c3cc2F)cn1 [Compound 154, 6-Fluoro-5-(1-methyl-1H-pyrazol-4-yl)-N-(3-(2-(pyrrolidin-1-yl)ethoxy)phenyl)-1H-indazole-3-carboxamide]",–,1.13,–
5.99,0.023,0.784,> 100,1.16,0.349,(17.4%),"CC(C)n1cc(-c2cc3c(C(=O)Nc4ccc(OC5CCN(C)CC5)cc4)n[nH]c3cc2F)cn1 [Compound 158, 6-Fluoro-5-(1-isopropyl-1H-pyrazol-4-yl)-N-(4-((1-methylpiperidin-4-yl)oxy)phenyl)-1H-indazole-3-carboxamide]",–,1.15,–
> 10,1.21,> 10,> 100,> 10,> 10,(20.7%),"CN1CCC(Oc2ccc(NC(=O)c3n[nH]c4cc(F)c(-c5cn(C)nc5CO)cc34)cc2)CC1 [Compound 153, 6-Fluoro-5-(3-(hydroxymethyl)-1-methyl-1H-pyrazol-4-yl)-N-(4-((1-methylpiperidin-4-yl)oxy)phenyl)-1H-indazole-3-carboxamide]",3.7,> 10,–
8.78,0.016,0.338,2.55,0.435,0.774,–,"CN1CCC(n2cc(-c3ccc4[nH]nc(C(=O)Nc5ccc(OC(F)F)nc5)c4c3)cn2)CC1 [Compound 88, N-(6-(Difluoromethoxy)pyridin-3-yl)-5-(1-(1-methylpiperidin-4-yl)-1H-pyrazol-4-yl)-1H-indazole-3-carboxamide]",–,0.624,–
1.41,0.005,0.06,> 100,0.09,0.052,(23.0%),"Cc1cc(NC(=O)c2n[nH]c3ccc(-c4cnn(C5CCN(C)CC5)c4)cc23)sn1 [Compound 143, N-(3-Methylisothiazol-5-yl)-5-(1-(1-methylpiperidin-4-yl)-1H-pyrazol-4-yl)-1H-indazole-3-carboxamide]",–,0.207,–
0.948,0.002,0.38,> 100,0.205,0.038,(37.4%),"CN1CCC(Oc2ccc(NC(=O)c3n[nH]c4ccc(-c5cnn(C)c5)cc34)cc2)CC1 [Compound 122, 5-(1-Methyl-1H-pyrazol-4-yl)-N-(4-((1-methylpiperidin-4-yl)oxy)phenyl)-1H-indazole-3-carboxamide]",–,2.64,–
1.31,0.001,1.3,> 100,1.15,0.02,(35.3%),"CN1CCC(Oc2ncc(NC(=O)c3n[nH]c4cc(F)c(-c5cnn(C)c5)cc34)cc2F)CC1 [Compound 157, 6-Fluoro-N-(5-fluoro-6-((1-methylpiperidin-4-yl)oxy)pyridin-3-yl)-5-(1-methyl-1H-pyrazol-4-yl)-1H-indazole-3-carboxamide]",–,2.58,–
6.77,0.03,3.02,> 100,6.12,0.087,(13.0%),"CN1CCC(Oc2ccc(NC(=O)c3n[nH]c4c(F)cc(-c5cnn(C)c5)cc34)cn2)CC1 [Compound 129, 7-Fluoro-5-(1-methyl-1H-pyrazol-4-yl)-N-(6-((1-methylpiperidin-4-yl)oxy)pyridin-3-yl)-1H-indazole-3-carboxamide]",–,1.84,–
0.382,0.001,0.064,0.93,0.079,0.004,–,"CN1CCC(n2cc(NC(=O)c3n[nH]c4ccc(-c5cnn(C)c5)cc34)cn2)CC1 [Compound 141, 5-(1-Methyl-1H-pyrazol-4-yl)-N-(1-(1-methylpiperidin-4-yl)-1H-pyrazol-4-yl)-1H-indazole-3-carboxamide]",–,0.103,–
> 10,0.046,8.02,1.88,1.02,0.043,–,"Cc1ncc(-c2ccc3[nH]nc(C(=O)N[C@H]4CCN(CC(C)C)C[C@@H]4F)c3c2)n1C [Compound 100, 5-(1,2-Dimethyl-1H-imidazol-5-yl)-N-((3 S,4 S)-3-fluoro-1-isobutylpiperidin-4-yl)-1H-indazole-3-carboxamide]",5.5,2.36,–
> 10,0.012,> 10,1.47,> 10,0.061,–,"CC(C)CN1CC[C@H](NC(=O)c2n[nH]c3ccc(-c4cnn(C)c4)cc23)[C@H](F)C1 [Compound 30, N-((3R,4S)-3-Fluoro-1-isobutylpiperidin-4-yl)-5-(1-methyl-1H-pyrazol-4-yl)-1H-indazole-3-carboxamide]",–,> 10,–
> 10,0.453,> 10,> 100,> 10,0.106,(26.5%),"CC[C@H](NC(=O)c1n[nH]c2ccc(-c3cnc(C)n3C)cc12)C(F)(F)F [Compound 132, (S)-5-(1,2-Dimethyl-1H-imidazol-5-yl)-N-(1,1,1-trifluorobutan-2-yl)-1H-indazole-3-carboxamide]",12.7,> 10,48.8
> 10,0.061,2.6,> 100,3.56,3.26,(18.6%),"CN1CCC(Oc2ccc(NC(=O)c3n[nH]c4cc(F)c(-c5ccn(C)n5)cc34)cc2)CC1 [Compound 160, 6-Fluoro-5-(1-methyl-1H-pyrazol-3-yl)-N-(4-((1-methylpiperidin-4-yl)oxy)phenyl)-1H-indazole-3-carboxamide]",27.9,3.24,–

SMILES,EC50 (IL-6) [µM],IC50 (DYRK1A kinase) [µM],EC50 [1] [µM],EC50 [3] [µM],EC50 [4] [µM],IC50 (GSK3β kinase) [µM],percent in parentheses under EC50 >100 [3],inhibition at 10 µM (IL-6) [%],EC50 [2] [µM],inhibition at 10 µM ([2]; read-out: percent inhibition at 10 μM) [%]
"CN1[C@@H]2CC[C@H]1CC(NC(=O)c1n[nH]c3ccc(-c4cnn(C)c4)cc13)C2 (stereo partly drawn) [Compound 146, 5-(1-Methyl-1H-pyrazol-4-yl)-N-((1R,5S)-8-methyl-8-azabicyclo [3.2.1]octan-3-yl)-1H-indazole-3-carboxamide]",> 10,–,> 10,> 100,1.58,–,(35.9%),4.7,> 10,–
